Results from US20020114804A1, “A METHOD OF TREATING INFECTION OF SUTURES AND PROSTHETIC DEVICES” (priority 1996, published 2002).

Experiments:
Format in all cases: cell-based, human
[1] = system: PMNs; test: PMN migration through gels of Matrigel or collagen IV; conditions: added to the bottom chamber
Description: Becton-Dickinson cell culture inserts (pore sizes 3 or 8 μm: Franklin Lakes, N.J.) were overlaid with the following proteins:
Collagen type IV and Matrigel matrices: 0.1 ml PBS containing 100 μg human placental collagen IV (Fluka Chemical Corp., Ronkonkoma, N.Y.), or 80 μg of reconstituted basement membrane proteins (Matrigel, Collaborative Research, Bedford, Mass.), was placed into each insert and allowed to gel at room temperature for 24 hrs.
PMNs were prepared from fresh heparinized blood from healthy adult volunteers by sedimentation on Ficoll-Hypaque gradients. Contaminating red blood cells were removed by hypotonic lysis, as described (7). The purity of PMN isolated by this method is >95% as determined by Wright-Giemsa staining (7). 10^6 PMNs in 250 μl of PBS supplemented with 5.5 mM glucose and 0.1% human serum albumin (PBSG-HSA), were placed in the upper compartment of each insert and incubated for 0-6 hrs at 37° C. in a humidified atmosphere containing 95% air/5% CO2. At the times and concentrations specified, chemoattractants/cytokines were added to the top or bottom compartment in 250 μl of PBSG-HSA. […] The medium in each lower compartment was collected and its content of PMNs was determined using either a Coulter Counter or a hemocytometer. […] Counts are expressed as the average number of PMNs that migrated into the lower compartment. […]

[2] = system: PMNs; test: Exclusion of fluorescein-conjugated F(ab)2 anti-fibrin from zones of contact between PMNs and fibrin
From the text: Therefore, the exclusion of fluorescein-conjugated F(ab)2 anti-fibrin from zones of contact between LTB4- or IL-8-stimulated PMNs and fibrin was used as a measure of the interaction of these cells with fibrin-coated surfaces. About 50% of fibrin-adherent LTB4- or IL-8-stimulated PMNs formed adhesive zones that excluded this high molecular weight (100 kDa.) probe. As expected from studies with Rh-PEG (FIG. 8), >99% of fibrin-adherent TNF- or fMLP-stimulated PMNs excluded fluorescein-conjugated F(ab)2 anti-fibrin from their zones of contact with fibrin (data not shown).

[3] = system: PMNs; test: PMN migration through Matrigel or Matrigel/tenascin coated filters; conditions: Matrigel alone
Description: Polymorphonuclear leukocytes (PMN), were prepared as described (7) from heparinized human blood by sedimentation on Ficoll-Hypaque gradients. Contaminating red blood cells were removed by hypotonic lysis. The purity of PMN isolated by this method was >95% as determined by Wright-Giemsa staining.
Cell culture inserts containing polyethylene terephthalate filters, 8-μm pore size (Becton-Dickinson), were overlaid with 0.1 ml of Matrigel (20-25 μg protein/filter) (Collaborative Research, Bedford, Mass.), and incubated at room temperature until they dried. These Matrigel-coated filters were washed with phosphate buffered saline containing 1.0 mM Mg^2+ and 1.0 mM Ca^2+ (PBS). 0.1 ml of a PBS solution (pH 7.2) containing the indicated amount of purified chick brain tenascin was added to some of the inserts. The filters were incubated at room temperature until they dried. These protein-coated filters were washed again with PBS and used within 12 h for cell migration studies. To prepare collagen I-coated inserts, filters were coated with rat tail collagen I (ICN Biochemicals, Costa, Mesa, Calif.) (400 μg/ml in PBS), by adding 0.1 ml of this solution to an insert and incubating the inserts at room temperature for 24 h. Some of these collagen I-coated filters were then incubated with tenascin as described above.
PMN: 250 μl of PBS [supplemented with 5.5 mM glucose and 0.1% human serum albumin (HSA) (PBSG-HSA)] containing 1×10^6 PMNs was placed in the upper compartment of each insert. 250 μl of PBSG-HSA with or without chemoattractant, as indicated, was added to the bottom compartment. The inserts were incubated for about 4 h at 37° C. in a humidified atmosphere containing 95% air/5% CO2. […] The medium in the lower compartment was collected and its content of PMN determined using a Coulter Counter, as described in Example 1.

Structure (SMILES): CCCCC/C=C\C[C@@H](O)/C=C/C=C/C=C\[C@@H](O)CCCC(=O)O [LTB4, leukotriene B4]
- PMN migration through gels of Matrigel or collagen IV [1]: stimulated PMN migration
- Fibrin-adherent PMNs that excluded fluorescein-conjugated F(ab)2 anti-fibrin (100 kDa) [2]: About 50%
- PMNs that migrated through Matrigel-coated inserts [3]: ~10%
